Measurements published in PMC12652692, “Synthesis and In Vitro Anticancer Evaluation of Novel Phosphonium Derivatives of Chrysin” (International Journal of Molecular Sciences, 2025).

Key:
Assay in all cases: NCI60 five-dose screen
Assay type in all cases: cell-based
K-562 = conditions: Homo sapiens, K562; K-562, Leukemia
Description: (§1) Since all new conjugates (3a–h) had notable antiproliferative activities on several tumor cell lines in the course of the one-dose screening, they were subjected to a five-dose test. […] J. Mol. Sci. 2025, 26, 11063 10 of 10 S.3. NCI60 Screening A detailed description of the NCI screening procedures can also be found on the website of NCI [39], and in our previous work. S.3.1. One-Dose Screen All candidates were examined at first at a single high dose (10 μM) in the full NCI60 cell panel. The value reported for the one-dose test is growth relative to the no-drug control and relative to the time zero number of cells. This made possible the disclosure of both growth inhibition (numbers between 0 and 100) and lethality (numbers less than 0). For example, a value of 100 means no growth inhibition. A value of 20 would mean 80% growth inhibition. A value of 0 means no net growth over the course of the analysis. A value of −20 would mean 20% lethality. A value of −100 means all cells are dead. S.3.2. […] The human tumor cell lines of the cancer screening panel were grown in RPMI 1640 medium containing 5% fetal bovine serum and 2 mM l-glutamine. Characteristically, cells were injected in 96-well microtiter plates in 0.1 mL at plating densities ranging from 5000 to 40,000 cells/well, depending on the doubling time of individual cell lines. After cell inoculation, the microtiter plates were incubated at 37 °C, 5% carbon dioxide, 95% air, and 100% relative humidity for 24 hours before the addition of tested compounds. After 24 hours, 2 plates of each cell line were fixed in situ with Cl3COOH (TCA), to represent a measurement of the cell population for each cell line at the time of drug addition (tz). Tested compounds were solubilized in DMSO at 400-fold the desired final maximum test concentration and stored frozen before application. In the course of the drug addition, an aliquot of frozen concentrate was thawed and diluted to twice the desired final maximum test concentration with a complete medium containing 50 μg mL−1 gentamicin. Additional four, 10-fold or ½ log serial dilutions were produced to furnish a total of five drug concentrations plus control. Aliquots of 0.1 mL of these different drug dilutions were added to the appropriate microtiter wells already containing 0.1 mL of medium, resulting in the required final drug concentrations. Following drug addition, the plates were incubated at 37 °C, 5% carbon dioxide, 95% air, and 100% relative humidity for an additional 48 hours. For adherent cells, the test was finished by the addition of cold Cl3COOH. Cells were fixed in situ by the addition of 50 μL of cold 50% (w/v) Cl3COOH, and incubated at 4 °C for 1 hour. The supernatant was discarded, and the plates were washed with H2O (5×) and dried in air. Sulforhodamine B (SRB) solution (0.1 mL) at 0.4% (w/v) in 1% CH3COOH was added to each well, and plates were incubated at RT for 10 min. After staining, the unbound dye was removed by washing five times with 1% CH3COOH, and the plates were dried in the air. The bound stain is afterward solubilized with a 10 mM trizma base, and the absorbance is read on an automated plate reader at λ = 515 nm. Utilizing the seven absorbance measurements [time zero (tz), control growth (c), and test growth in the presence of the drug at the five concentration levels (ti)], the percentage growth was determined at each of the drug concentration levels. Growth inhibition (%) was calculated as: [(ti − tz)/(c − tz)] × 100, for concentrations where ti ≥ tz (1) [(ti − tz)/(tz)] × 100, for concentrations where ti < tz. (2) Three dose‒response parameters were calculated as follows. GI50 (growth inhibition of 50%) was determined from Equation (3), which is the drug concentration resulting in a 50% reduction in the net protein increase (as measured by SRB staining) in control cells in the course of the drug incubation. [(ti − tz)/(c − tz)] × 100 = 50 (3)

LOX IMVI = conditions: Homo sapiens, Melanoma
Description: as §1

RXF 393 = conditions: Homo sapiens; RXF 393, Renal Cancer
Description: as §1

KM12 = conditions: Homo sapiens; KM12, Colon Cancer
Description: as §1

SW-620 = conditions: Homo sapiens; SW-620, Colon Cancer
Description: as §1

COLO 205 = conditions: Homo sapiens; COLO 205, Colon Cancer
Description: as §1

HOP-92 = conditions: Homo sapiens; HOP-92, Non-small-Cell Lung Cancer
Description: as §1

NCI/ADR-RES = conditions: Homo sapiens, Ovarian Cancer
Description: as §1

OVCAR-4 = conditions: Homo sapiens; OVCAR-4, Ovarian Cancer
Description: as §1

UACC-62 = conditions: Homo sapiens; UACC-62, Melanoma
Description: as §1

OVCAR-8 = conditions: Homo sapiens; OVCAR-8, Ovarian Cancer
Description: as §1

IGROV1 = conditions: Homo sapiens, IGROV-1; IGROV1, Ovarian Cancer
Description: as §1

MCF7 = conditions: Homo sapiens; MCF7, Breast Cancer
Description: as §1

HOP-62 = conditions: Homo sapiens; HOP-62, Non-small-Cell Lung Cancer
Description: as §1

A549/ATCC = conditions: Homo sapiens, Non-small-Cell Lung Cancer
Description: as §1

SF-539 = conditions: Homo sapiens; SF-539, CNS Cancer
Description: as §1

SK-OV-3 = conditions: Homo sapiens; SK-OV-3, Ovarian Cancer
Description: as §1

SN12C = conditions: Homo sapiens, Renal Cancer
Description: as §1

BT-549 = conditions: Homo sapiens; BT-549, Breast Cancer
Description: as §1

HCT-116 = conditions: Homo sapiens; HCT-116, Colon Cancer
Description: as §1

T-47D = conditions: Homo sapiens, T47D, Breast Cancer
Description: as §1

SK-MEL-5 = conditions: Homo sapiens; SK-MEL-5, Melanoma
Description: as §1

O=c1cc(-c2ccccc2)oc2cc(OCCCC[P+](C3CCCCC3)(C3CCCCC3)C3CCCCC3)cc(O)c12 [3e]
GI50 (K-562): 402 nM
GI50 (LOX IMVI): 938 nM
GI50 (RXF 393): 461 nM
GI50 (KM12): 382 nM
GI50 (SW-620): 649 nM
GI50 (COLO 205): 812 nM
GI50 (HOP-92): 211 nM
GI50 (NCI/ADR-RES): 8440 nM
GI50 (OVCAR-4): 686 nM
GI50 (UACC-62): 368 nM
GI50 (OVCAR-8): 595 nM
GI50 (IGROV1): 774 nM
GI50 (MCF7): 956 nM
GI50 (HOP-62): 1560 nM
GI50 (A549/ATCC): 1330 nM
GI50 (SF-539): 751 nM
GI50 (SK-OV-3): 1470 nM
GI50 (SN12C): 509 nM
GI50 (BT-549): 709 nM
GI50 (HCT-116): 882 nM
GI50 (T-47D): 397 nM
GI50 (SK-MEL-5): 369 nM

COc1c(C)cc([P+](CCCCOc2cc(O)c3c(=O)cc(-c4ccccc4)oc3c2)(c2cc(C)c(OC)c(C)c2)c2cc(C)c(OC)c(C)c2)cc1C [3f]
GI50 (K-562): 34 nM
GI50 (LOX IMVI): 284 nM
GI50 (RXF 393): 191 nM
GI50 (KM12): 195 nM
GI50 (SW-620): 323 nM
GI50 (COLO 205): 791 nM
GI50 (HOP-92): 165 nM
GI50 (NCI/ADR-RES): 1580 nM
GI50 (OVCAR-4): 351 nM
GI50 (UACC-62): 312 nM
GI50 (OVCAR-8): 350 nM
GI50 (IGROV1): 346 nM
GI50 (MCF7): 260 nM
GI50 (HOP-62): 311 nM
GI50 (A549/ATCC): 314 nM
GI50 (SF-539): 367 nM
GI50 (SK-OV-3): 263 nM
GI50 (SN12C): 313 nM
GI50 (BT-549): 280 nM
GI50 (HCT-116): 256 nM
GI50 (T-47D): 121 nM
GI50 (SK-MEL-5): 168 nM

Cc1ccccc1[P+](CCCCOc1cc(O)c2c(=O)cc(-c3ccccc3)oc2c1)(c1ccccc1C)c1ccccc1C [3g]
GI50 (K-562): 279 nM
GI50 (LOX IMVI): 170 nM
GI50 (KM12): 280 nM
GI50 (SW-620): 274 nM
GI50 (COLO 205): 351 nM
GI50 (HOP-92): 255 nM
GI50 (NCI/ADR-RES): 2140 nM
GI50 (OVCAR-4): 429 nM
GI50 (UACC-62): 319 nM
GI50 (OVCAR-8): 560 nM
GI50 (IGROV1): 428 nM
GI50 (MCF7): 267 nM
GI50 (HOP-62): 332 nM
GI50 (A549/ATCC): 417 nM
GI50 (SF-539): 187 nM
GI50 (SK-OV-3): 277 nM
GI50 (SN12C): 230 nM
GI50 (BT-549): 291 nM
GI50 (HCT-116): 265 nM
GI50 (T-47D): 208 nM
GI50 (SK-MEL-5): 198 nM

O=c1cc(-c2ccccc2)oc2cc(OCCCC[P+](c3ccccc3)(c3ccccc3)c3ccccn3)cc(O)c12 [3h]
GI50 (K-562): 189 nM
GI50 (LOX IMVI): 694 nM
GI50 (RXF 393): 608 nM
GI50 (KM12): 523 nM
GI50 (SW-620): 901 nM
GI50 (COLO 205): 1640 nM
GI50 (HOP-92): 346 nM
GI50 (NCI/ADR-RES): 7550 nM
GI50 (OVCAR-4): 1140 nM
GI50 (UACC-62): 549 nM
GI50 (OVCAR-8): 494 nM
GI50 (IGROV1): 653 nM
GI50 (MCF7): 396 nM
GI50 (HOP-62): 1520 nM
GI50 (A549/ATCC): 1130 nM
GI50 (SF-539): 1060 nM
GI50 (SK-OV-3): 1520 nM
GI50 (SN12C): 510 nM
GI50 (BT-549): 293 nM
GI50 (HCT-116): 650 nM
GI50 (T-47D): 259 nM
GI50 (SK-MEL-5): 278 nM
